According to publication PMC5294771, “Antidiabetic effects of Brucea javanica seeds in type 2 diabetic rats” (BMC Complementary and Alternative Medicine, 2017):
Read-outs that look alike come from different tables or passages of the source. Marks after values point to notes of the source that are not given here.

What was measured:
nondiabetic mice = details: 1 mg/kg b.w., 0-8 h screening; cited from earlier work
[1] = system: STZ-induced diabetic rats; details: 1 mg/kg b.w., 0-8 h screening; cited from earlier work
[2] = biological target: T1, glycogen phosphorylase α (GP-α) (Oryctolagus cuniculus, UniProt P00489); assay: GP-α inhibition assay; type: biochemical
T1 sequence (P00489 2-843 limits assumed): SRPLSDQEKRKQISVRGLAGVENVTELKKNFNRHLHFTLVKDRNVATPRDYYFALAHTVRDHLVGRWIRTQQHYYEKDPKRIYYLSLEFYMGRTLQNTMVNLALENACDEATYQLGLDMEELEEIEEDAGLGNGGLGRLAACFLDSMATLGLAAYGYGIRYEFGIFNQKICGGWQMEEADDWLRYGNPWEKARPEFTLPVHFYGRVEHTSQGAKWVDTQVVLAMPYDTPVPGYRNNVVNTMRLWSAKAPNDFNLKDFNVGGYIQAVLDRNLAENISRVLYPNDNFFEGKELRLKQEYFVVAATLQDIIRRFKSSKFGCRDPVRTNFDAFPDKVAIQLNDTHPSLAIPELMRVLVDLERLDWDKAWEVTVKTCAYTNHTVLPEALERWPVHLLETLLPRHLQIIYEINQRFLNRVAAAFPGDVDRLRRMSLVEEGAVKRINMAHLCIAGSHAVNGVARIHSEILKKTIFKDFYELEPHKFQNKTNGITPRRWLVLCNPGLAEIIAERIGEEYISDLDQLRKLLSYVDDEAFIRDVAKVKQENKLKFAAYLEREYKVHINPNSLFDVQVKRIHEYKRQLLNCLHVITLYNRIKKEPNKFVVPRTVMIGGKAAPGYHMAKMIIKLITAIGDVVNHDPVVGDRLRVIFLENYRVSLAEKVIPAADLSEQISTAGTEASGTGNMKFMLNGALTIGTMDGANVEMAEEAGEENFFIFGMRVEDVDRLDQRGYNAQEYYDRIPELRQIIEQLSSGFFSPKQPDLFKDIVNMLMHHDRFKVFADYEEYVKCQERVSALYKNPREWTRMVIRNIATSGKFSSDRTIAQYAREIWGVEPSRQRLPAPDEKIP

α-glucosidase = α-glucosidase (Saccharomyces cerevisiae, UniProt P53341); assay: α-glucosidase inhibition assay (pNPG); type: biochemical
Procedure: The fractions from B. javanica seeds were evaluated as GP-α inhibitors and were further tested for their α-glucosidase inhibitory activity as described previously. Briefly, 50 μL of samples or standard were mixed with 100 μL of α-glucosidase (0.1 U/mL) in phosphate buffer (0.1 M, pH 6.9) and incubated at 37 °C for 10 min. The reactions were initiated by addition of p-Nitrophenyl α-D-Glucoside (p-NPG, 50 μL) in phosphate buffer (0.1 M, pH 6.9) and incubated again at 37 °C for 30 min. The reactions were terminated using NaCO3 (1 M, 50 μL). […] Phosphate buffer (50 μL) was used as control. Blank readings (without substrate) were subtracted from specific sample wells and the percentage of α-Glucosidase inhibition (αGI) was calculated as following formula: αGI (%) = [(Acontrol – Asample)/Acontrol] × 100 [22].
α-glucosidase inhibition activity of isolated compounds were determined according to the method described in section 2.3 and GP-α inhibition activity was measured according to our previously reported method.

[3] = system: NA-STZ induced type 2 diabetic (T2D) rats; assay: Fasting blood glucose levels in NA-STZ T2D rats, 28-day oral treatment; type: in vivo, Sprague Dawley (SD) rats; details: for Fasting blood glucose level: 10 mg/kg/day b.w. oral
Procedure: The experimental rats were fasted overnight (16 h) and diabetes was induced by single intraperitoneal (i.p) injection of STZ (60 mg/kg b.w.) freshly prepared in 0.1 M citrate buffer (pH 4.5) 15 min after i.p injection of NA (100 mg/kg b.w.) dissolved in normal saline. Diabetes was confirmed 3 weeks after NA-STZ induction by measuring tail vein blood glucose levels using glucose meter (Accu-check Performa, Rochi diagnostic, USA). The rats having blood glucose levels higher than 11 mmol/L were considered as diabetic and selected for study.
The experimental rats were divided into 5 groups (n = 6; 3 M/3 F) as following. Group I: non-diabetic control (NDC) and Group II: diabetic control (DC) consisted of rats were allowed to free access of water; Group III and IV were treated orally with EAF (25 and 50 mg/kg/day b.w.) diluted in distilled water, Group V was treated orally with Glibenclamide (10 mg/kg/day b.w.) and served as standard drug. All groups except group 1 are diabetic. The selected doses (25 and 50 mg/kg/day b.w) were based on prior acute oral toxicity study.
(§1) After diabetes was confirmed, rats were divided into specific groups which were mentioned in the section of treatment protocol above. Fasting blood glucose (FBG) levels and body weight of rats were measured and it was considered as 0 day. The extracts and standard drug were administered orally on a daily base in single dose for 28 days. At the end of each week, animals were fasted overnight and body weights were recorded using electronic balance. Blood samples were obtained from the tail vein of the rats by Accu-Chek FastClix lancing device and blood glucose levels were analysed using glucose meter (Accu-check, Roche Diagnostics, USA).

Body weights in T2D rats = type: in vivo, Sprague Dawley (SD) rats; details: 10 mg/kg/day b.w. oral
Procedure: as §1

[4] = system: NA-STZ induced type 2 diabetic (T2D) rats; assay: Serum MDA and GSH levels in T2D rats; type: in vivo, Sprague Dawley (SD) rats; details: 10 mg/kg
Procedure: (§2) At the end of study period, rats were fasted overnight, anesthetized, and the blood sample was collected by cardiac puncture. At the end, the rats were sacrificed by cervical dislocation. The blood sample was centrifuged 2000 x g for 15 minute at 4 °C, serum was collected and stored at −80 °C until analyses. The liver was carefully removed, washed in ice-cold phosphate buffered saline (PBS, pH 7.4) to remove the blood. A piece of liver sample was rinsed in liquid nitrogen, stored at −80 °C for glycogen assay.
The malondialdehyde (MDA), a byproduct of lipid peroxidation, and glutathione (GSH), a marker of antioxidant defense, were quantified by commercial kit (Cayman chemical company, Ann Arbor, MI, USA) according to the manufacturer’s instructions.

[5] = system: NA-STZ induced type 2 diabetic (T2D) rats; assay: Oral glucose tolerance test (OGTT) in T2D rats; type: in vivo, Sprague Dawley (SD) rats; details: 10 mg/kg
Procedure: On the 25th day of treatment, the OGTT was carried out according to the previously reported method. All animals were fasted overnight (16 h) before commencing the experiments. Group I (non-diabetic control) and Group II (diabetic control) weretreated with distilled water, Group III and Group IV were given EAF (25 and 50 mg/kg b.w), and Group V was given glibenclamide (10 mg/kg b.w.) using oral gavage, respectively. After 30 min, α-D-glucose (2 g/kg b.w.) was administered orally into all groups of rats. Blood samples were collected from the tail vein at 0 (immediately after glucose load), 30, 60, 90, and 120 min, and blood glucose levels were determined by glucose oxidase method using a commercial glucose meter (Roche, USA). […] AUCglucose=C1+C2/2×t2−t1
Where, C1 and C2 are concentrations of glucose at different time points; t1 and t2 are different tested time points.

[6] = system: NA-STZ induced type 2 diabetic (T2D) rats; assay: Liver and renal function markers in T2D rats; type: in vivo, Sprague Dawley (SD) rats; details: 10 mg/kg b.w., 4 weeks, serum
Procedure: as §2
(§3) The levels of serum total cholesterol (TC), triglycerides (TG), low density lipoprotein cholesterol (LDL-C), and high density lipoprotein cholesterol (HDL-C), total protein, alkaline phosphatase (ALP), alanine aminotransferase (ALT), aspartate aminotransferase (AST), urea, creatinine were analyzed using automatic biochemical analyzer (Beckman-700, Fullerton, CA, USA)

[7] = system: NA-STZ induced type 2 diabetic (T2D) rats; assay: Serum cytokine levels (ELISA) in T2D rats; type: in vivo, Sprague Dawley (SD) rats; details: 10 mg/kg b.w.
Procedure: as §2
The quantification of cytokine in the serum was assessed by enzyme-linked immunosorbent assay (ELISA) using commercial kits for rat TNF-α, rat IL-6, and rat IL-1β (eBioscience, San Diego, CA USA) according to the manufacturer’s instructions.

[8] = system: NA-STZ induced type 2 diabetic (T2D) rats; assay: Serum lipid profiles in T2D rats; type: in vivo, Sprague Dawley (SD) rats; details: 10 mg/kg, 4 weeks
Procedure: as §2, §3

[9] = system: NA-STZ induced type 2 diabetic (T2D) rats; assay: Serum insulin levels and HOMA-IR in T2D rats; type: in vivo, Sprague Dawley (SD) rats; details: 10 mg/kg, 4 weeks, not significant
Procedure: as §2
The serum insulin levels were quantified by using rat insulin ELISA kit (Mercodia AB, Uppsala, Sweden) according to the manufacturer’s instructions. Insulin resistance (IR) was calculated according to the homeostasis model assessment by using the following equation [24] HOMA−IR=glucosemmol/L×insulinμU/mL/22.5

[10] = system: NA-STZ induced type 2 diabetic (T2D) rats; assay: Liver glycogen contents in T2D rats; type: in vivo, Sprague Dawley (SD) rats; details: 10 mg/kg b.w.
Procedure: as §2
The glycogen contents in the liver were measured using a glycogen assay kit (Ann Arbor, MI, USA) according to the manufacturer’s instructions.

[11] = isolated compounds, read-out: Glycogen phosphorylase α IC50

Sequence of α-glucosidase (P53341 whole entry): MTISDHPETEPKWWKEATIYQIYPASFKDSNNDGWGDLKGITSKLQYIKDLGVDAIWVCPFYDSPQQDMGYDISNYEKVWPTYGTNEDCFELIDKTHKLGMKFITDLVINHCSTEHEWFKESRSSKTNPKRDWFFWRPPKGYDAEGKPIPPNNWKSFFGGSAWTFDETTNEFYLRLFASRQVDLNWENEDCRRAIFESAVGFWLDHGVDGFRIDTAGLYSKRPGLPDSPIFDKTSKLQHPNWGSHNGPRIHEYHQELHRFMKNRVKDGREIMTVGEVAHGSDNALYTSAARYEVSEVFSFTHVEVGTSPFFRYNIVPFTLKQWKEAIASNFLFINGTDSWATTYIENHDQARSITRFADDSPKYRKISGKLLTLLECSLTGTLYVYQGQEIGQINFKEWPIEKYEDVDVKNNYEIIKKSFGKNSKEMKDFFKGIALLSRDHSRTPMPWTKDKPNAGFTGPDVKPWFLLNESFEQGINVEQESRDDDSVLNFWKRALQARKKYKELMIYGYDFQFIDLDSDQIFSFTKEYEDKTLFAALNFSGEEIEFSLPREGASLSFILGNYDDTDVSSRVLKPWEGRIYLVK

CC1=C[C@H](O)[C@@H](O)[C@]2(C)[C@H]3[C@@H](O)[C@H](O)[C@@]4(C)OC[C@@]35[C@@H](C[C@@H]12)OC(=O)[C@H](O)[C@]54O [Compound 3, bruceine E]
blood glucose effect (nondiabetic mice): blood glucose lowering effect
blood glucose effect [1]: blood glucose lowering effect
GP-α inhibition [2]: no inhibition
inhibition at 5000 µM ([2]; at 5 mM, read-out: inhibitory activity against GP-α): 32.7%
α-glucosidase inhibition (α-glucosidase): no inhibition
inhibition at 2500 µM (α-glucosidase; at 2.5 mM, read-out: inhibitory activity against α-glucosidase): 16.1%

O=c1cc(-c2ccc(O)c(O)c2)oc2cc(O)cc(O)c12 [Compound 5, luteolin]
IC50 [2, 11]: 45.08 ± 0.04 µM
GP-α inhibitory potency relative to caffeine ([2]; vs caffeine): 10 fold
α-glucosidase inhibitory potency relative to acarbose (α-glucosidase; vs acarbose): 5.5 fold

O=C(O)c1ccc(O)cc1 [Compound 4, Para-hydroxybenzoic acid]
IC50 [2, 11]: 357.88 ± 0.07 µM

O=C(O)c1cc(O)c(O)c(O)c1 [Compound 7, gallic acid]
IC50 [2]: 214.38 ± 0.12 µM

O=C(O)c1ccc(O)c(O)c1 [Compound 6, protocatechuic acid]
IC50 [2, 11]: 297.37 ± 0.13 µM

COc1ccc(Cl)cc1C(=O)NCCc1ccc(S(=O)(=O)NC(=O)NC2CCCCC2)cc1 [Glibenclamide, glibenclamide]
reduction of FBG levels compared to initial day ([3]; 10 mg/kg b.w. once a day for 28 days): 45.44%
Fasting blood glucose level ([3]; 0 Day): 16.90 ± 1.63 mmol/L
Fasting blood glucose level ([3]; Day 7): 17.63 ± 2.13 mmol/L
Fasting blood glucose level ([3]; Day 14): 12.97 ± 0.72 mmol/L
Fasting blood glucose level ([3]; Day 21): 11.83 ± 1.27 mmol/L
Fasting blood glucose level ([3]; Day 28): 9.22 ± 0.65^a mmol/L
Body Weight (Body weights in T2D rats; 0 Day): 211.00 ± 6.19 g
Body Weight (Body weights in T2D rats; Day 7): 203.50 ± 8.90 g
Body Weight (Body weights in T2D rats; Day 14): 205.83 ± 7.31 g
Body Weight (Body weights in T2D rats; Day 21): 206.00 ± 6.64 g
Body Weight (Body weights in T2D rats; Day 28): 209.33 ± 7.91 g
reduction of serum MDA level compared to DC group [4]: about 36.45%
increase of serum GSH level compared to DC group ([4]; not significant): about 18.94%
decrease of AUC for glucose 0 to 120 min compared to DC group [5]: 57.42%
OGTT blood glucose reduction at 120 min compared to the values at 30 min ([5]; day 25, glucose 2 g/kg): 29.97%
ALP [6]: 146.67 ± 10.50 U/L
ALT [6]: 58.17 ± 4.52 U/L
AST [6]: 138.83 ± 8.33 U/L
Creatinine [6]: 29.00 ± 0.93 µmol/L
Urea [6]: 10.37 ± 1.80 mmol/L
IL-1β [7]: 570.67 ± 31.71^b pg/ml
IL-6 [7]: 123.06 ± 10.18^b pg/ml
TNF-α [7]: 70.10 ± 4.00^b pg/ml
Serum HDL [8]: 1.31 ± 0.08^a mmol/L
Serum LDL [8]: 0.59 ± 0.04^a mmol/L
Serum TC [8]: 1.12 ± 0.05^c mmol/L
Serum TG [8]: 0.52 ± 0.09^b mmol/L
increase of serum insulin compared to diabetic control group [9]: 16.5%
LG (liver glycogen) [10]: 11.55 ± 1.82 mg/g tissue

CC1=CC(=O)[C@@H](O)[C@]2(C)[C@H]3[C@@H](O)[C@H](O)[C@]4(C)OC[C@@]35[C@@H](C[C@@H]12)OC(=O)[C@H](O)[C@]54O [Compound 2, bruceine D]
blood glucose effect (nondiabetic mice): blood glucose lowering effect
blood glucose effect [1]: blood glucose lowering effect
GP-α inhibition [2]: no inhibition
α-glucosidase inhibition (α-glucosidase): no inhibition
inhibitory activity against α-glucosidase (α-glucosidase; at 2.5 mM): 14.74%

COc1cc(C(=O)O)ccc1O [Compound 1, vanillic acid]
GP-α inhibition [2]: no inhibition
inhibition at 12000 µM ([2]; at 12 mM): 22.9%
α-glucosidase inhibition (α-glucosidase): no inhibition
α-glucosidase inhibition (α-glucosidase; concentrations tested up to 6 mM): did not inhibit
